Measurements taken from patent US7643943B2, “Methods for monitoring drug activities in vivo” (Wyeth LLC, priority 2003, dated 2010).

What was measured:
[1] = human, in vivo
Description: (§1) In a randomized, double-blind, multicenter trial, once-weekly intravenous doses of 25-, 75-, or 250-mg of CCI-779 were administered to patients with advanced renal cancer that were either previously treated, or untreated and not appropriate candidates for high dose interlukin-2 therapy. Whole blood for CCI-779 and metabolite concentrations was drawn for population pharmacokinetic analysis, and Bayesian-predicted area under the concentration-time curves for parent drug (AUC), parent plus metabolite (AUCsum), and cumulative AUC and AUCsum were derived.
(§2) For CCI-779 clearance, factors for dose, attenuation of exposure with multiple-dose, and effect of body surface area were included.
(§3) The following examples were based on a randomized, double-blind, multicenter, outpatient phase 2 study of CCI-779 administered by 30 minute intravenous infusion (via an automatic dispensing pump) in patients with advanced RCC. Eligible patients were randomly assigned to treatment in a 1:1:1 ratio to receive 25 mg, 75 mg, or 250 mg of CCI-779 weekly until evidence of disease progression.
(§4) Full pharmacokinetic profiling was planned in a subset of patients, with remaining patients to provide sparse sampling.
(§5) The bioanalytical method for CCI-779 was performed using whole blood in a liquid chromatography/tandem mass spectrometry (LC/MS/MS) procedure with deuterated internal standard.
(§6) In order to characterize the pharmacokinetic profiles of patients providing sparse blood sampling, fully and sparsely sampled patient data were analyzed collectively using a population pharmacokinetic method and the NONMEM application (version 1.0, Revision 5.0 on Windows NT 4.0 computer with Pentium processor, NONMEM Project Group, University of California at San Francisco, Calif.). […] Data were therefore modeled separately and segregated by analyte into two separate data sets with dose, time/duration of administration, and demographic information. […] Construction of the NONMEM infile was performed using SAS (version 8.1) on a Sun Microsystems mainframe computer with Sun OS 5.8. […] In both cases, the model-derived value for AUC for a given patient and analyte were obtained from the quotient of CCI-779 Dose/Clearance (CL), in which CL was obtained from Bayesian estimation and the POSTHOC option of NONMEM.
(§7) During model building, an exponential error model was applied to the kinetic model.

clinical [2] = conditions: human, in vivo
Description: as §1, §2, §3, §4, §5, §6, §7

clinical [3] = conditions: human, in vivo, iv
Description: The pharmacokinetics of CCI-779 is being studied in patients with cancer receiving CCI-779 either alone or in combination with other chemotherapeutic agents following intravenous administration. Intravenous dosage schedules previously investigated include a cyclical schedule (daily for 5 days every two weeks) and a once-weekly regimen. […] The following examples evaluated the safety, efficacy, and pharmacokinetic/pharmacodynamic relationship to clinical response of three doses of CCI-779, when administered to patients with advanced, refractory renal cell cancer (RCC).
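For DE on CL (θ6), parameter estimate in this document: population pharmacokinetic analysis in NONMEM of pooled full and sparse blood sampling from patients, exponential error on kinetic parameters, proportional residual error, bootstrap check over 1,000 resamples.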
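For DE on V3 (θ7), parameter estimate in this document: population pharmacokinetic analysis in NONMEM of pooled full and sparse blood sampling from patients, exponential error on kinetic parameters, proportional residual error, bootstrap check over 1,000 resamples.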
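For Dose effect on CL (θ7), bootstrap sample median in this document: population pharmacokinetic analysis in NONMEM of pooled full and sparse blood sampling from patients, exponential error on kinetic parameters, proportional residual error, bootstrap check over 1,000 resamples.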
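For Dose effect on V3 (θ8), bootstrap sample median in this document: population pharmacokinetic analysis in NONMEM of pooled full and sparse blood sampling from patients, exponential error on kinetic parameters, proportional residual error, bootstrap check over 1,000 resamples.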

## CO[C@H]1C[C@@H]2CC[C@@H](C)[C@@](O)(O2)C(=O)C(=O)N2CCCC[C@H]2C(=O)O[C@H]([C@H](C)C[C@@H]2CC[C@@H](O)[C@H](OC)C2)CC(=O)[C@H](C)/C=C(\C)[C@@H](O)[C@@H](OC)C(=O)[C@H](C)C[C@H](C)/C=C/C=C/C=C/1C [sirolimus]
[1]
  DE on CL (θ6), parameter estimate: 0.422
  DE on V3 (θ7), parameter estimate: 0.302
  Dose effect on CL (θ7), bootstrap sample median: 0.412
  Dose effect on V3 (θ8), bootstrap sample median: 0.231
  HCT effect on V3 (θ8), parameter estimate: 0.719
  Hematocrit effect on V3 (θ9), bootstrap sample median: 0.768
  Inter-Patient Variability % on CL: 63.7%
  Inter-Patient Variability % on Ka: 34.6%
  Inter-Patient Variability % on V2: 164%
  Inter-Patient Variability % on V3: 22.8%
  Intersubject variability on CL (ω^21), bootstrap sample median: 0.545
  Intersubject variability on CL (ω^21), final model parameter estimate: 0.406
  Intersubject variability on V2 (ω^22), bootstrap sample median: 1.418
  Intersubject variability on V2 (ω^22), final model parameter estimate: 2.72
  Intersubject variability on V3 (ω^23), final model parameter estimate: 0.052
  Intersubject variability on ka (ω^24), bootstrap sample median: 0.316
  Intersubject variability on ka (ω^24), final model parameter estimate: 0.120
  Ka (θ5), parameter estimate: 0.087 h⁻¹
  Proportional error (ε^2), bootstrap sample median: 0.212
  Proportional error (ε^2), final model parameter estimate: 0.0543
  Q (θ3), bootstrap sample median: 27.5 L/h
  V2 (θ2), bootstrap sample median: 8.24 L
  V3 (θ4), bootstrap sample median: 11.6 L
  V3 (θ4), parameter estimate: 12.9 L
  ka (θ5), bootstrap sample median: 0.0616 h⁻¹
[1]; iv
  Q (θ3), parameter estimate: 44.1 L/h
  V2 (θ2), parameter estimate: 10.4 L
[1]; iv, 250 mg
  CL (θ1), parameter estimate: 2.05 L/h
Clinical [2]
  clearance: 33.2 mL/min
Clinical [3]
  half-life: 60 to 70 h
